Laboratory results taken from patent publication US9125913B2, “Bcl-2-selective apoptosis-inducing agents for the treatment of cancer and immune diseases” (AbbVie Inc., priority 2008, dated 2015).

Each compound was assayed on GST-Bcl-2 (assay: TR-FRET binding assay, Bcl-2). Details: TR-FRET Ki values.
Procedure, shortened: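 Ki values come from Wang's competitive-binding equation applied to TR-FRET signal (excitation 340/35 nm; emission 520/525 nm F-Bak peptide, 495/510 nm Tb antibody). Protein, probe and antibody incubated with compound 3 h at room temperature; dilution series began at 50 μM as 2× stock in 10% DMSO.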
In the case of CC1(C)CCC(CN2CCN(c3ccc(C(=O)NS(=O)(=O)c4ccc(NCCC(F)(F)F)c([N+](=O)[O-])c4)c(Oc4cccc5[nH]ccc45)c3)CC2)=C(c2ccc(Cl)cc2)C1 [EXAMPLE 323, 4-(4-{[2-(4-chlorophenyl)-4,4-dimethylcyclohex-1-en-1-yl]methyl}piperazin-1-yl)-2-(1H-indol-4-yloxy)-N-({3-nitro-4-[(3,3,3-trifluoropropyl)amino]phenyl}sulfonyl)benzamide], the “Binding selectivity ratio (Bcl-XL Ki/Bcl-2 Ki)” value (“Binding selectivity ratio” below) is reported as greater than 695.2. For CC1(C)CCC(CN2CCN(c3ccc(C(=O)NS(=O)(=O)c4cnc(NC5CCN(C6CC6)CC5)c(Cl)c4)c(Oc4cccc5[nH]cnc45)c3)CC2)=C(c2ccc(Cl)cc2)C1 [EXAMPLE 449, 2-(1H-benzimidazol-4-yloxy)-N-({5-chloro-6-[(1-cyclopropylpiperidin-4-yl)amino]pyridin-3-yl}sulfonyl)-4-(4-{[2-(4-chlorophenyl)-4,4-dimethylcyclohex-1-en-1-yl]methyl}piperazin-1-yl)benzamide], the “Binding selectivity ratio” value was 74.4. O=C(NS(=O)(=O)c1ccc(NCCCN2CCCC2)c([N+](=O)[O-])c1)c1ccc(N2CCN(Cc3ccccc3-c3ccc(Cl)cc3)CC2)cc1Oc1ccccc1 [Example 91, 4-{4-[(4′-chloro-1,1′-biphenyl-2-yl)methyl]piperazin-1-yl}-N-({3-nitro-4-[(3-pyrrolidin-1-ylpropyl)amino]phenyl}sulfonyl)-2-phenoxybenzamide] was tested, and the “Binding selectivity ratio” value was 52.8. For CN1CCN(c2ccc(S(=O)(=O)NC(=O)c3ccc(N4CCN(CC5=C(c6ccc(Cl)cc6)CC(C)(C)CC5)CC4)cc3Oc3ccc4[nH]ccc4c3)cc2[N+](=O)[O-])CC1 [Example 107, 4-(4-{[2-(4-chlorophenyl)-4,4-dimethylcyclohex-1-en-1-yl]methyl}piperazin-1-yl)-2-(1H-indol-5-yloxy)-N-{[4-(4-methylpiperazin-1-yl)-3-nitrophenyl]sulfonyl}benzamide], the “Binding selectivity ratio” value was 62.5. O=C(NS(=O)(=O)c1ccc(NC2CCN(S(=O)(=O)c3ccccc3)CC2)c([N+](=O)[O-])c1)c1ccc(N2CCN(Cc3ccccc3-c3ccc(Cl)cc3)CC2)cc1Oc1ccccc1 [Example 157, 4-{4-[(4′-chloro-1,1′-biphenyl-2-yl)methyl]piperazin-1-yl}-N-[(3-nitro-4-{[1-(phenylsulfonyl)piperidin-4-yl]amino}phenyl)sulfonyl]-2-phenoxybenzamide] was tested, and the “Binding selectivity ratio” value was greater than 148.2. For CC1(C)CCC(CN2CCN(c3ccc(C(=O)NS(=O)(=O)c4ccc(NC5(CO)CCOCC5)c([N+](=O)[O-])c4)c(Oc4ccc5[nH]ccc5c4)c3)CC2)=C(c2ccc(Cl)cc2)C1 [EXAMPLE 240, 4-(4-{[2-(4-chlorophenyl)-4,4-dimethylcyclohex-1-en-1-yl]methyl}piperazin-1-yl)-N-[(4-{[4-(hydroxymethyl)tetrahydro-2H-pyran-4-yl]amino}-3-nitrophenyl)sulfonyl]-2-(1H-indol-5-yloxy)benzamide], the “Binding selectivity ratio” value was greater than 795.4. In the case of CN1CCC(Nc2ccc(S(=O)(=O)NC(=O)c3ccc(N4CCN(CC5=C(c6ccc(Cl)cc6)CC(C)(C)CC5)CC4)c(F)c3Oc3ccc4[nH]ccc4c3)cc2[N+](=O)[O-])CC1 [EXAMPLE 184, 4-(4-{[2-(4-chlorophenyl)-4,4-dimethylcyclohex-1-en-1-yl]methyl}piperazin-1-yl)-3-fluoro-2-(1H-indol-5-yloxy)-N-({4-[(1-methylpiperidin-4-yl)amino]-3-nitrophenyl}sulfonyl)benzamide], the “Binding selectivity ratio” value is reported as greater than 2345.3. For CC1(C)CCC(CN2CCN(c3ccc(C(=O)NS(=O)(=O)c4cnc(NCC5CCOCC5)c(C#N)c4)c(Oc4ccc5[nH]ccc5c4)c3)CC2)=C(c2ccc(Cl)cc2)C1 [EXAMPLE 352, 4-(4-{[2-(4-chlorophenyl)-4,4-dimethylcyclohex-1-en-1-yl]methyl}piperazin-1-yl)-N-({5-cyano-6-[(tetrahydro-2H-pyran-4-ylmethyl)amino]pyridin-3-yl}sulfonyl)-2-(1H-indol-5-yloxy)benzamide], the “Binding selectivity ratio” value was greater than 96.7. In the case of CC1(C)CCC(CN2CCN(c3ccc(C(=O)NS(=O)(=O)c4ccc(NN5CCCCC5)c([N+](=O)[O-])c4)c(Oc4cccc5[nH]ccc45)c3)CC2)=C(c2ccc(Cl)cc2)C1 [EXAMPLE 283, 4-(4-{[2-(4-chlorophenyl)-4,4-dimethylcyclohex-1-en-1-yl]methyl}piperazin-1-yl)-2-(1H-indol-4-yloxy)-N-{[3-nitro-4-(piperidin-1-ylamino)phenyl]sulfonyl}benzamide], the “Binding selectivity ratio” value is reported as greater than 13.9. In the case of CC1(C)CCC(CN2CCN(c3ccc(C(=O)NS(=O)(=O)c4ccc(S(C)(=O)=O)cc4)c(Oc4cccc5[nH]ccc45)c3)CC2)=C(c2ccc(Cl)cc2)C1 [EXAMPLE 383, 4-(4-{[2-(4-chlorophenyl)-4,4-dimethylcyclohex-1-en-1-yl]methyl}piperazin-1-yl)-2-(1H-indol-4-yloxy)-N-{[4-(methylsulfonyl)phenyl]sulfonyl}benzamide], the “Binding selectivity ratio” value is reported as greater than 304.1. CN1CCN(Nc2ccc(S(=O)(=O)NC(=O)c3ccc(N4CCN(CC5=C(c6ccc(Cl)cc6)CC(C)(C)CC5)CC4)cc3Oc3cccc4[nH]ccc34)cc2S(=O)(=O)C(F)(F)F)CC1 [EXAMPLE 215, 4-(4-{[2-(4-chlorophenyl)-4,4-dimethylcyclohex-1-en-1-yl]methyl}piperazin-1-yl)-2-(1H-indol-4-yloxy)-N-({4-[(4-methylpiperazin-1-yl)amino]-3-[(trifluoromethyl)sulfonyl]phenyl}sulfonyl)benzamide] was tested, and the “Binding selectivity ratio” value was 120.8. With CN(C)CC(=O)N1CCO[C@@H](CNc2ccc(S(=O)(=O)NC(=O)c3ccc(N4CCN(CC5=C(c6ccc(Cl)cc6)CC(C)(C)CC5)CC4)cc3Oc3cccc4[nH]cnc34)cc2[N+](=O)[O-])C1 [EXAMPLE 438, 2-(1H-benzimidazol-4-yloxy)-4-(4-{[2-(4-chlorophenyl)-4,4-dimethylcyclohex-1-en-1-yl]methyl}piperazin-1-yl)-N-{[4-({[(2S)-4-(N,N-dimethylglycyl)morpholin-2-yl]methyl}amino)-3-nitrophenyl]sulfonyl}benzamide] the “Binding selectivity ratio” value was 34.5. COCCOCCSc1ccc(S(=O)(=O)NC(=O)c2ccc(N3CCN(CC4=C(c5ccc(Cl)cc5)CC(C)(C)CC4)CC3)cc2Oc2ccc3[nH]ccc3c2)cc1[N+](=O)[O-] [EXAMPLE 380, 4-(4-{[2-(4-chlorophenyl)-4,4-dimethylcyclohex-1-en-1-yl]methyl}piperazin-1-yl)-2-(1H-indol-5-yloxy)-N-[(4-{[2-(2-methoxyethoxy)ethyl]thio}-3-nitrophenyl)sulfonyl]benzamide] was tested, and the “Binding selectivity ratio” value was 2107.3. For CN1CCC(Oc2ccc(S(=O)(=O)NC(=O)c3ccc(N4CCN(CC5=C(c6ccc(Cl)cc6)CC(C)(C)CC5)CC4)cc3Oc3ccc4[nH]ccc4c3)cc2[N+](=O)[O-])CC1 [EXAMPLE 353, 4-(4-{[2-(4-chlorophenyl)-4,4-dimethylcyclohex-1-en-1-yl]methyl}piperazin-1-yl)-2-(1H-indol-5-yloxy)-N-({4-[(1-methylpiperidin-4-yl)oxy]-3-nitrophenyl}sulfonyl)benzamide], the “Binding selectivity ratio” value was greater than 2260.0. For CC1(C)CCC(CN2CCN(c3ccc(C(=O)NS(=O)(=O)c4cnc(NCC5(F)CCOCC5)c(Cl)c4)c(Oc4cccc5[nH]ncc45)c3)CC2)=C(c2ccc(Cl)cc2)C1 [EXAMPLE 413, N-[(5-chloro-6-{[(4-fluorotetrahydro-2H-pyran-4-yl)methyl]amino}pyridin-3-yl)sulfonyl]-4-(4-{[2-(4-chlorophenyl)-4,4-dimethylcyclohex-1-en-1-yl]methyl}piperazin-1-yl)-2-(1H-indazol-4-yloxy)benzamide], the “Binding selectivity ratio” value was 803.8. In the case of CC1(C)CCC(CN2CCN(c3ccc(C(=O)NS(=O)(=O)c4cnc(OCC5CCOCC5)c(Cl)c4)c(Oc4cccc5[nH]ccc45)c3)CC2)=C(c2ccc(Cl)cc2)C1 [EXAMPLE 387, 4-(4-{[2-(4-chlorophenyl)-4,4-dimethylcyclohex-1-en-1-yl]methyl}piperazin-1-yl)-N-{[5-chloro-6-(tetrahydro-2H-pyran-4-ylmethoxy)pyridin-3-yl]sulfonyl}-2-(1H-indol-4-yloxy)benzamide], the “Binding selectivity ratio” value is reported as 1723.4. For CN(C)CCCNc1ccc(S(=O)(=O)NC(=O)c2ccc(N3CCN(Cc4ccccc4-c4ccc(Cl)cc4)CC3)cc2Oc2ccc3[nH]ccc3c2)cc1S(=O)(=O)C(F)(F)F [Example 64, 4-{4-[(4′-chloro-1,1′-biphenyl-2-yl)methyl]piperazin-1-yl}-N-({4-{[3-(dimethylamino)propyl]amino}-3-[(trifluoromethyl)sulfonyl]phenyl}sulfonyl)-2-(1H-indol-5-yloxy)benzamide], the “Binding selectivity ratio” value was 77.1. CC1(C)CCC(CN2CCN(c3ccc(C(=O)NS(=O)(=O)c4cnc(NCC5CCOCC5)c(Br)c4)c(Oc4ccc5[nH]ccc5c4)c3)CC2)=C(c2ccc(Cl)cc2)C1 [EXAMPLE 350, N-({5-bromo-6-[(tetrahydro-2H-pyran-4-ylmethyl)amino]pyridin-3-yl}sulfonyl)-4-(4-{[2-(4-chlorophenyl)-4,4-dimethylcyclohex-1-en-1-yl]methyl}piperazin-1-yl)-2-(1H-indol-5-yloxy)benzamide] was tested, and the “Binding selectivity ratio” value was greater than 110.6. With CC(C1=C(c2ccc(Cl)cc2)CC(C)(C)CC1)N1CCN(c2ccc(C(=O)NS(=O)(=O)c3ccc(NN4CCN(C)CC4)c([N+](=O)[O-])c3)c(Oc3ccc4[nH]ccc4c3)c2)CC1 (centres unmarked) [EXAMPLE 254, 4-(4-{1-[2-(4-chlorophenyl)-4,4-dimethylcyclohex-1-en-1-yl]ethyl}piperazin-1-yl)-2-(1H-indol-5-yloxy)-N-({4-[(4-methylpiperazin-1-yl)amino]-3-nitrophenyl}sulfonyl)benzamide] the “Binding selectivity ratio” value was 421.7. With O=C(NS(=O)(=O)c1ccc(NCCCN2CCOCC2)c(S(=O)(=O)C(F)(F)F)c1)c1ccc(N2CCN(Cc3ccccc3-c3ccc(Cl)cc3)CC2)cc1Oc1cccc2[nH]ccc12 [Example 65, 4-{4-[(4′-chloro-1,1′-biphenyl-2-yl)methyl]piperazin-1-yl}-2-(1H-indol-4-yloxy)-N-({4-[(3-morpholin-4-ylpropyl)amino]-3-[(trifluoromethyl)sulfonyl]phenyl}sulfonyl)benzamide] the “Binding selectivity ratio” value was 4.8.
